Measured values from article PMC7305224, “Mutually stabilizing interactions between proto-peptides and RNA” (Nature Communications, 2020).
Non-standard residues stand in square brackets, D forms with d. Residues, ends and D or L forms follow the SMILES beside them. Dab = NCC[C@H](N)C(=O)O

Legend:
Type in all cases: binding
[1] = test system: RNA duplex 1 (5′-rCrGrCrUrArArArUrCrG-3′ & 5′-rCrGrArUrUrUrArGrCrG-3′); assay: RNA thermal denaturation (Tm) by UV hyperchromicity at 260 nm with synthetic peptides/depsipeptides, RNA duplex 1; conditions: 100 mM NaCl; for RNA duplex 1 Tm: observed Tm with peptide/depsipeptide 100 µM, mean ± SD of 2-4 independent experiments; for RNA duplex 1 ΔTm: peptide/depsipeptide 100 μM, RNA 2.5 μM each strand, mean of 2–4 replicates
Procedure: Each sample contained RNA duplex 1 (5′-rCrGrCrUrArArArUrCrG-3′ and 5′-rCrGrArUrUrUrArGrCrG-3′, 2.5 μM strand) and peptide/depsipeptide (100 μM) in buffered solution (10 mM phosphate, 100 mM NaCl, pH 7.0 or 10 mM acetate, 100 mM NaCl, pH 5.0). a Structures of depsipeptides used to systematically characterize cationic side chain effects on RNA duplex stability. Lactic acid residues are highlighted. Ac acetyl, Aba acetamidobenzoic acid, which was appended to the N-terminus to increase UV absorbance. b Structures of the Fmoc-didepsipeptide building blocks used for solid-phase synthesis of depsipeptide sequences. Fmoc fluorenylmethoxycarbonyl. c Comparative effects of oligo-didepsipeptide sequences 2–6 and analogous oligo-dipeptide and on the Tm of the RNA duplex (number of independent measurements: n = 3 for Arg and Lys sequences; n = 2 for His and Dab sequences; n = 4 for Orn sequences). The shaded areas correspond to the mean ± SD Tm measured for the RNA duplex alone (n = 16 independent measurements). Data are shown as a scatter plot with mean ± SD. d Comparative effects on RNA duplex Tm of depsipeptide sequences containing a single backbone ester (number of independent measurements: n = 3 for Arg; n = 2 for His, Orn, and Dab; n = 4 for Lys), relative to RNA duplex alone (n = 16 independent measurements). Data are shown as a scatter plot with mean ± SD. e To assess the impact of different cationic side chains on depsipeptide degradation rates, depsipeptides 7–11 (40 μM) were incubated at 37 °C in buffer (100 mM HEPES, 10 mM NaCl, pH 7.3). After 5 min, the reactions were quenched by the addition of 3% TFA, and samples were analyzed by HPLC.
(§1) Prior to Tm analyses, RNA samples were annealed in the appropriate buffer by heating to 75 °C and slowly cooling to room temperature. Depsipeptide/peptide was added to the annealed RNA and incubated at 4 °C for 20 min prior to carrying out the analysis. For analyses involving dry-down reaction mixtures, the Tm was determined by monitoring fluorescence increase upon melting of a fluorophore/quencher-labeled RNA duplex (5′-rCrGrArUrUrUrArGrCrG-/3IABkFQ/-3′ and 3′-rGrCrUrArArArUrCrGrC-FAM-5′) using a BioRad CFX Connect rtPCR instrument with a heating ramp of 1 °C/min and 20 μL final sample volumes. For analyses involving pure, synthetic compounds, the Tm of the RNA was determined by monitoring UV hyperchromicity at 260 nm using a Varian Cary Bio-100 spectrophotometer, with a heating ramp of 1 °C/min and 0.5- or 1-cm pathlength cells. The following RNA sequences were used: RNA duplex 1 = 5′-rCrGrCrUrArArArUrCrG-3′ and 5′-rCrGrArUrUrUrArGrCrG-3′; RNA duplex 2 = 5′-rArArArArUrUrUrArUrArUrUrArUrUrA-3′ and 5′-rUrArArUrArArUrArUrArArArUrUrUrU-3′; RNA duplex 3 = 5′-rArArCrGrUrArUrArCrGrUrU-3′ (palindromic); and H26a RNA = 5′-rArUrGrArGrUrArArCrCrGrUrArArGrGrUrGrArArArUrU-3′. RNA was present in each assay at a final concentration of 2.5 μM of the folded structure (2.5 μM each strand for duplex 1 and duplex 2, 5.0 μM palindromic strand for duplex 3, 2.5 μM strand for H26a RNA). Tm values were determined by nonlinear fitting of the melting curves using GraphPad Prism 8.2.1 for duplex 1 and H26a, or by finding the maximum of the first derivative of the curve using the Varian Cary Bio-100 software for duplex 2 and duplex 3.

[2] = test system: RNA duplex 2 (5′-rArArArArUrUrUrArUrArUrUrArUrUrA-3′ and 5′-rUrArArUrArArUrArUrArArArUrUrUrU-3′); assay: RNA thermal denaturation (Tm) by UV hyperchromicity, RNA duplex 2; conditions: for RNA duplex 2 Tm: observed Tm with peptide/depsipeptide 100 µM, pH 7.0, RNA alone 33.7 ± 0.7, mean ± SD of 2-4 independent experiments; for RNA duplex 2 ΔTm: peptide/depsipeptide 100 μM, RNA 2.5 μM each strand, pH 7.0, 10 mM phosphate, 100 mM NaCl, mean of 2–4 replicates
Procedure: as §1, with “3. Both methods of determining the Tm gave similar values for a given denaturation curve.” for “3.”

[3] = test system: H26a RNA (5′-rArUrGrArGrUrArArCrCrGrUrArArGrGrUrGrArArArUrU-3′); assay: RNA thermal denaturation (Tm) by UV hyperchromicity, H26a RNA hairpin; conditions: for H26a RNA Tm: observed Tm with peptide/depsipeptide 100 µM, pH 7.0, RNA alone 53.4 ± 0.5, mean ± SD of 2-4 independent experiments; for H26a RNA ΔTm: peptide/depsipeptide 100 μM, RNA 2.5 μM strand, pH 7.0, 10 mM phosphate, 100 mM NaCl, mean of 2–4 replicates
Procedure: as §1, with “3. Both methods of determining the Tm gave similar values for a given denaturation curve.” for “3.”

[4] = test system: RNA duplex 3 (5′-rArArCrGrUrArUrArCrGrUrU-3′, palindromic); assay: RNA thermal denaturation (Tm) by UV hyperchromicity, RNA duplex 3; conditions: for RNA duplex 3 Tm: observed Tm with peptide/depsipeptide 100 µM, pH 7.0, RNA alone 48.6 ± 0.7, mean ± SD of 2-4 independent experiments; for RNA duplex 3 ΔTm: peptide/depsipeptide 100 μM, 5.0 μM palindromic strand, pH 7.0, 10 mM phosphate, 100 mM NaCl, mean of 2–4 replicates
Procedure: as §1, with “3. Both methods of determining the Tm gave similar values for a given denaturation curve.” for “3.”

RNA duplex 1 = assay: CD analysis of RNA duplex with peptides/depsipeptides; conditions: RNA duplex 5 µM, peptide/depsipeptide 0–10 µM, MES-TEA buffer (60 mM)
From the text: The gel was cropped at the edges for clarity. […] […] Red and blue colors of the filled circles correspond to curves of the same color in panel (c). […] […] Scans were from 320 nm to 220 nm with a bandwidth of 5 nm, data pitch of 0.2 nm, and scan rate of 50 nm/min with three accumulations. […] Data were collected in independent triplicates and the data were averaged. Finally, data were smoothed and plotted using Matlab.

[5] = pH 5.0, 10 mM acetate, RNA alone 41.5 ± 0.3
[6] = pH 7.0, 10 mM phosphate, RNA alone 43.8 ± 0.4
[7] = 10 mM acetate, pH 5.0, vs RNA alone at pH 5.0
[8] = 10 mM phosphate, pH 7.0, vs RNA alone at matched pH

Molecule	RNA duplex 1 Tm [1, 5] [°C]	RNA duplex 1 Tm [1, 6] [°C]	RNA duplex 1 ΔTm [1, 7] [°C]	RNA duplex 1 ΔTm [1, 8] [°C]	RNA duplex 2 Tm [2] [°C]	RNA duplex 2 ΔTm [2] [°C]	H26a RNA Tm [3] [°C]	H26a RNA ΔTm [3] [°C]	RNA duplex 3 Tm [4] [°C]	RNA duplex 3 ΔTm [4] [°C]	changes in CD spectra of the RNA duplex upon addition (RNA duplex 1)
Aba-His-lac-His-lac-His-lac-His-lac-His-lac-His-lac-His-lac-His-lac-NH2 [compound 3]	46.1 ± 0.7	44.3 ± 1.0	4.6	0.5	–	–	–	–	–	–	–
Aba-Orn-lac-Orn-lac-Orn-lac-Orn-lac-Orn-lac-Orn-lac-Orn-lac-Orn-lac-NH2 [compound 5]	–	43.8 ± 0.9	–	0.0	34.6 ± 0.7	1.0	52.3 ± 0.6	−1.1	49.1 ± 0.1	0.5	–
CC(=O)N[C@@H](Cc1ccc(O)cc1)C(=O)NCC(=O)N[C@@H](C)C(=O)N[C@@H](CCN)C(=O)N[C@@H](CCCCN)C(=O)N[C@@H](C)C(=O)N[C@@H](CCN)C(=O)N[C@@H](CCCCN)C(=O)N[C@@H](C)C(=O)N[C@@H](CCN)C(=O)N[C@@H](CCCCN)C(=O)N[C@@H](C)C(=O)N[C@@H](CCN)C(=O)N[C@@H](CCCCN)C(=O)N[C@@H](C)C(=O)N[C@@H](CCN)C(=O)N[C@@H](CCCCN)C(N)=O (Ac-YGA[Dab]KA[Dab]KA[Dab]KA[Dab]KA[Dab]K-NH2)	–	–	–	–	–	–	–	–	–	–	physical association
CC(=O)N[C@@H](Cc1ccc(O)cc1)C(=O)NCC(=O)N[C@@H](C)C(=O)N[C@@H](CCN)C(=O)N[C@@H](CCCCN)C(N)=O [Ac-Tyr-Gly-Ala-Dab-Lys-NH2] (Ac-YGA[Dab]K-NH2)	–	–	–	–	–	–	–	–	–	–	physical association
Aba-Gly-Ala-Dab-Lys-Ala-Dab-His-lac-Dab-Lys-Ala-Dab-Lys-NH2 [compound 8]	52.6 ± 0.2	48.9 ± 1.4	11.1	5.1	–	–	–	–	–	–	–
CC(=O)N[C@@H](Cc1ccc(O)cc1)C(=O)NCC(=O)N[C@@H](C)C(=O)N[C@@H](CCN)C(=O)N[C@@H](CCCCN)C(=O)N[C@@H](C)C(=O)N[C@@H](CCN)C(=O)N[C@@H](CCCCN)C(=O)N[C@@H](C)C(=O)N[C@@H](CCN)C(=O)N[C@@H](CCCCN)C(N)=O (Ac-YGA[Dab]KA[Dab]KA[Dab]K-NH2)	–	–	–	–	–	–	–	–	–	–	physical association
Aba-Gly-Ala-Dab-Lys-Ala-Dab-Dab-lac-Dab-Lys-Ala-Dab-Lys-NH2 [compound 11]	–	48.7 ± 0.2	–	4.9	–	–	–	–	–	–	–
Aba-Gly-Ala-Dab-Lys-Ala-Dab-Orn-lac-Dab-Lys-Ala-Dab-Lys-NH2 [compound 10]	–	48.7 ± 1.2	–	4.9	41.8 ± 0.5	8.2	56.9 ± 0.1	3.5	51.1 ± 1.3	2.5	–
Aba-Gly-Ala-Dab-Lys-Ala-Dab-Arg-lac-Dab-Lys-Ala-Dab-Lys-NH2 [compound 7]	–	52.5 ± 0.3	–	8.7	41.8 ± 0.6	8.1	64.8 ± 0.1	11.4	60.6 ± 0.8	12.0	–
Aba-Dab-lac-Dab-lac-Dab-lac-Dab-lac-Dab-lac-Dab-lac-Dab-lac-Dab-lac-NH2 [compound 6]	–	44.2 ± 0.2	–	0.4	36.2 ± 0.1	2.6	53.9 ± 0.2	0.5	48.2 ± 0.1	−0.4	–
Aba-Arg-lac-Arg-lac-Arg-lac-Arg-lac-Arg-lac-Arg-lac-Arg-lac-Arg-lac-NH2 [compound 2]	–	49.1 ± 0.7	–	5.3	–	–	–	–	–	–	–
Aba-Lys-lac-Lys-lac-Lys-lac-Lys-lac-Lys-lac-Lys-lac-Lys-lac-Lys-lac-NH2 [compound 4]	–	46.4 ± 0.1	–	2.6	35.2 ± 0.1	1.5	59.7 ± 0.6	6.3	52.5 ± 0.7	3.9	–
